Here are results for 2 molecules from patent US20260345771A1, “THERAPY COMPRISING ANTI-CD19 ANTIBODY AND EZH2 MODULATORS” (Incyte Corporation, priority 2022, published 2026).

One test concerns SU-DHL-6 cells. The test is described as follows: CellTiter-Glo (CTG) viability assay, SU-DHL-6. In kind it is cell-based. The settings on record: Homo sapiens, 168 h; SU-DHL-6, 7 days, compound alone. On the procedure:
(§1) A panel of 6 lymphoma cell lines was included in the analysis (5 DLBCL and 1 Burkitt lymphoma). All cell lines were cultured in RPMI 1640 medium (Gibco) supplemented with 10%-20% FCS (Sigma) at 37 °C in 5% CO2.
(§2) To analyze direct cytotoxic and anti-proliferative effects on target cells, cell viability assays were performed using the CellTiter-Glo Kit (Promega), a luminescence assay for determination of viable cell number based on quantification of adenosine triphosphate (ATP) levels. […] Cell densities were adjusted at days 3 and 7 during the assay to avoid overgrowth. The assay was performed in clear 48- and 96-F-well bottom plates in a final volume of 1 mL or 200 μL, respectively, in a cell incubator at 37 °C and 5% CO2. In each experiment, all test conditions were performed in triplicates.
(§3) Cell viability was analyzed according to the manufacturer's protocol using the Tecan Infinite F500 plate reader. The relative viable cell count was calculated from the measured relative luminescence units (RLU) with the following equation: […]
(§4) For graphical illustration and IC50 determination, the mean values of triplicates (viability assay) or duplicates (CD19 expression) of the individual experiments were imported into GraphPad Prism software (version 8). […] IC50 curves were determined applying a non-linear regression curve fit model (sigmoidal dose response, variable slope).
A general note: In ATP-based viability assays light output follows the ATP content of the culture.

The test system of another test is SU-DHL-4 cells. The test is described as follows: CellTiter-Glo (CTG) viability assay, SU-DHL-4. In kind it is cell-based. The settings on record: Homo sapiens, SU-DHL-4, 168 h. On the procedure:
as §1, §2, §3, §4

The subject of the next test is WSU-DLCL2 tumor. The test is described as follows: Tumor growth in WSU-DLCL2 tumor bearing CB17-SCID mice. In kind it is in vivo. On the procedure:
The in vivo study was carried out in WSU-DLCL2 tumor bearing CB17-SCID mice. 4×10^6 WSU-DLCL2 cells (DLBCL cell line) per animal were implanted with matrigel (1:1) s.c. into the left flank of 6-8 weeks old female CB17-SCID mice. On study day 17, when a mean tumor volume of approximately 100 mm^3 was reached, animals were randomly allocated into treatment groups with 8 mice per group and treatment was started. Treatment was applied every day p.o. at 35 mg/kg or 50 mg/kg for Compound 1 (application volume: 10 mL/kg; formulation buffer: 20% propylene glycol, 10% Solutol HS15, 70% phthalate buffer) and biweekly i.v. at 3 mg/kg or 10 mg/kg for tafasitamab (application volume: 5 mL/kg; formulation buffer: PBS). Tumor volume and body weight were measured twice weekly. Mice were sacrificed when reaching a tumor volume >1500 mm^3 or latest at study end on day 69 after tumor cell implantation. Mean tumor growth curves were calculated using GraphPad Prism software (version 8.4.3).
The proof of concept in vivo study was performed in WSU-DLCL2 tumor bearing CB17-SCID mice.

One may read the IC50 as the point on the concentration scale where inhibition reaches its midpoint. High values mean weaker potency in that assay, low ones greater potency in that assay. For `COC1CN([C@H]2CC[C@H]([C@@]3(C)Oc4c(Cl)cc(C(=O)NCc5c(SC)cc(C)[nH]c5=O)c(C)c4O3)CC2)C1` [Compound 1], the IC50 was 3.8 nM in the test on SU-DHL-6 cells and 17.1 nM with SU-DHL-4 cells.

B1: tafasitamab: humanized monoclonal antibody that targets the antigen CD19, engineered in the IgG Fc-region to enhance ADCC (antibody, chains of the INN, looked up)
heavy: EVQLVESGGGLVKPGGSLKLSCAASGYTFTSYVMHWVRQAPGKGLEWIGYINPYNDGTKYNEKFQGRVTISSDKSISTAYMELSSLRSEDTAMYYCARGTYYYGTRVFDYWGQGTLVTVSSASTKGPSVFPLAPSSKSTSGGTAALGCLVKDYFPEPVTVSWNSGALTSGVHTFPAVLQSSGLYSLSSVVTVPSSSLGTQTYICNVNHKPSNTKVDKKVEPKSCDKTHTCPPCPAPELLGGPDVFLFPPKPKDTLMISRTPEVTCVVVDVSHEDPEVQFNWYVDGVEVHNAKTKPREEQFNSTFRVVSVLTVVHQDWLNGKEYKCKVSNKALPAPEEKTISKTKGQPREPQVYTLPPSREEMTKNQVSLTCLVKGFYPSDIAVEWESNGQPENNYKTTPPMLDSDGSFFLYSKLTVDKSRWQQGNVFSCSVMHEALHNHYTQKSLSLSPG
light: DIVMTQSPATLSLSPGERATLSCRSSKSLQNVNGNTYLYWFQQKPGQSPQLLIYRMSNLNSGVPDRFSGSGSGTEFTLTISSLEPEDFAVYYCMQHLEYPITFGAGTKLEIKRTVAAPSVFIFPPSDEQLKSGTASVVCLLNNFYPREAKVQWKVDNALQSGNSQESVTEQDSKDSTYSLSSTLTLSKADYEKHKVYACEVTHQGLSSPVTKSFNRGEC
In the case of B1, the tumor growth inhibition entry in the test on WSU-DLCL2 tumor (monotherapy 3 mg/kg i.v. BIW) and with WSU-DLCL2 tumor (monotherapy 10 mg/kg i.v. BIW) was “did not reveal any tumor growth inhibition” in each case.
